Assays:
[1] = target: T1, glutathione-S-transferase (GST) tagged LXRbeta LBD (ligand binding domain) (Homo sapiens, UniProt P55055); assay: LanthaScreen TR-FRET Liver X Receptor Coactivator Assay, co-activator recruitment to LXRbeta LBD; type: biochemical; conditions: for Emax: efficacy at max dose, in relation to reference dual agonist T0901317, read-out: LXR beta Activity @ max dose (%); for EC50: potency (Inflection Point, IP), co-activator recruitment to LXRbeta LBD, in relation to T0901317, read-out: LXR beta IP
T1 construct: purchased Invitrogen pv4658.pps
T1 sequence (P55055 222-460 limits assumed): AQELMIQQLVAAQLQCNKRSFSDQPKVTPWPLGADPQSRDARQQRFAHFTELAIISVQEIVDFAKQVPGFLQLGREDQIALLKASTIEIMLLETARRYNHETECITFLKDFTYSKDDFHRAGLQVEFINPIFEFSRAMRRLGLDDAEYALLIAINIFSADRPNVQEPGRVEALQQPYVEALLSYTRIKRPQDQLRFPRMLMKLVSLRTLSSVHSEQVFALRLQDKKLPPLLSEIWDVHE
Experimental: (§1) Potency (Inflection Point, IP) and efficacy (Emax) are evaluated via compound-induced co-activator recruitment to glutathione-S-transferase (GST) tagged LXRbeta and LXRalpha LBD (ligand binding domain) proteins in relation to reference dual agonist compound T0901317 (N-(2,2,2-Trifluoroethyl)-N-[4-[2,2,2-trifluoro-1-hydroxy-1-(trifluoromethyl)ethyl] phenyl] benzenesulfonamide) using the LanthaScreen™ TR-FRET Liver X Receptor Coactivator Assays according to manufacturer's instructions (Invitrogen catalog number pv4658.pps and pv4655). While running the LanthaScreen™ TR-FRET Liver X Receptor Coactivator Assay, LXR alpha-LBD or LXR beta-LBD was added to ligand test compounds followed by addition of a mixture of a fluorescein-labelled coactivator peptide and terbium-conjugated anti-GST antibody. After an incubation period at room temperature, TR-FRET (time-resolved fluorescence resonance energy transfer) was measured using a filter-based instrument capable of TR-FRET, e.g. PerkinElmer Envision.

[2] = target: T2, glutathione-S-transferase (GST) tagged LXRalpha LBD (ligand binding domain) (Homo sapiens, UniProt Q13133); assay: LanthaScreen TR-FRET Liver X Receptor Coactivator Assay, co-activator recruitment to LXRalpha LBD; type: biochemical; conditions: for Emax: efficacy at max dose, in relation to reference dual agonist T0901317, read-out: LXR alpha Activity @ max dose (%); for EC50 / LXR alpha IP (nM): potency (Inflection Point, IP), co-activator recruitment to LXRalpha LBD, in relation to T0901317; for EC50: read-out: LXR alpha IP
T2 construct: purchased Invitrogen pv4655
T2 sequence (Q13133 209-447 limits assumed): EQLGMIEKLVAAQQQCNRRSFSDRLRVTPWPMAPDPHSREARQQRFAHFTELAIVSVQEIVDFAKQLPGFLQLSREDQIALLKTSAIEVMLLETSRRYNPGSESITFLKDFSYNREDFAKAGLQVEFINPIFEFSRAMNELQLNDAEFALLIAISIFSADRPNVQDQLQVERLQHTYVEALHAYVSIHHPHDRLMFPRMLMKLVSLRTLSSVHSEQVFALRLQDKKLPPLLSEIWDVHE
Experimental: as §1

SMILES	Emax [1] [%]	EC50 [1] [nM]	Emax [2] [%]	EC50 [2] [nM]	LXR alpha IP (nM) [2]
COc1cccc([C@@](O)(C(=O)N2CCC(CC3CCN(c4ccc(C(=O)N(C)C)c(Cl)c4)CC3)CC2)C(F)(F)C(F)(F)F)c1 [Example 2-89, 2-chloro-N,N-dimethyl-4-[4-({1-[(2R)-3,3,4,4,4-pentafluoro-2-hydroxy-2-{3-methoxyphenyl)butanoyl]piperidin-4-yl}methyl)piperidin-1-yl]benzamide]	83	21	23	304	
CNC(=O)c1ccc(N2CCC(CC3CCN(C(=O)[C@](O)(c4cccc(C)c4)C(F)(F)F)CC3)CC2)nc1Cl [Example 7-151, 2-chloro-N-methyl-6-[4-({1-[(2R)-3,3,3-trifluoro-2-hydroxy-2-(3-methylphenyl)propanoyl]piperidin-4-yl}methyl)piperidin-1-yl]pyridine-3-carboxamide]	81	7	34	121	
CC(C)c1cccc([C@@](O)(C(=O)N2CCC(CC3CCN(c4ccc(C(=O)N(C)C)cc4)CC3)CC2)C(F)(F)F)c1 [Example 2-125, N,N-dimethyl-4-{4-[(1-{(2R)-3,3,3-trifluoro-2-hydroxy-2-[3-(1-methyl-ethyl)phenyl]propanoyl}piperidin-4-yl)methyl]piperidin-1-yl}benzamide]	64	52	15	459	
CN(C)C(=O)c1ccc(N2CCC(CC3CCN(C(=O)C(N)(c4cccc(Cl)c4)C(F)(F)F)CC3)CC2)cc1Cl (stereo not drawn) [Example 2-167, 4-[4-({1-[2-amino-2-(3-chlorophenyl)-3,3,3-trifluoro-propanoyl]piperidin-4-yl}methyl)piperidin-1-yl]-2-chloro-N,N-dimethyl-benzamide]	75	37	18		NO IP
Cc1cc(N2CCC(CC3CCN(C(=O)[C@](O)(c4cccc(OC(F)(F)F)c4)C(F)(F)F)CC3)CC2)ccc1C(=O)N(C)C [Example 2-150, N,N,2-trimethyl-4-{4-[(1-{(2R)-3,3,3-trifluoro-2-hydroxy-2-[3-(trifluoromethoxy)phenyl]propanoyl}piperidin-4-yl)methyl]piperidin-1-yl}benzamide]	56	23	15		NO IP
CN(C)C(=O)c1ccc(N2CCC(OC3CCN(C(=O)C(O)(c4ccc(Cl)cc4)C(F)(F)F)CC3)CC2)cc1Cl (stereo not drawn) [Example 2-23, 2-chloro-4-[4-({1-[2-(4-chlorophenyl)-3,3,3-trifluoro-2-hydroxy-propanoyl]piperidin-4-yl}oxy)piperidin-1-yl]-N,N-dimethyl-benzamide]	51	513	0		NO IP
COc1nc(N2CCC(CC3CCN(C(=O)[C@](O)(c4ccccc4)C(F)(F)F)CC3)CC2)ccc1C(=O)N(C)C [Example 7-18, 2-methoxy-N,N-dimethyl-6-[4-({1-[(2R)-3,3,3-trifluoro-2-hydroxy-2-phenylpropanoyl]piperidin-4-yl}methyl)piperidin-1-yl] pyridine-3-carboxamide]	80	6	34	442	
COc1cccc([C@@](O)(C(=O)N2CCC(CC3(C)CCN(c4ccc(C(=O)N(C)C)c(C)n4)CC3)CC2)C(F)(F)F)c1 [Example 7-16, N,N,2-trimethyl-6-[4-methyl-4-({1-[(2R)-3,3,3-trifluoro-2-hydroxy-2-(3-methoxyphenyl)propanoyl]piperidin-4-yl}methyl)piperidin-1-yl]pyridine-3-carboxamide]	65	66	8		NO IP
CNC(=O)c1ccc(N2CCC(CC3CCN(C(=O)[C@](O)(c4cccc(C(C)C)c4)C(F)(F)F)CC3)CC2)nc1Cl [Example 7-149, 2-chloro-N-methyl-6-{4-[(1-{(2R)-3,3,3-trifluoro-2-hydroxy-2-[3-(1-methylethyl)phenyl]propanoyl}piperidin-4-yl)methyl]piperidin-1-yl}pyridine-3-carboxamide]	91	17	32	163	
COc1cccc([C@@](O)(C(=O)N2CCC(CC3CN(c4ccc(C(=O)N(C)C)c(C5CC5)n4)C3)CC2)C(F)(F)F)c1 [Example 7-15, 2-cyclopropyl-N,N-dimethyl-6-[3-({1-[(2R)-3,3,3-trifluoro-2-hydroxy-2-(3-methoxyphenyl)propanoyl]piperidin-4-yl}methyl)azetidin-1-yl]pyridine-3-carboxamide]	91	1430	0		NO IP
CN(C)C(=O)c1ncc(N2CCC(CC3CCN(C(=O)C(O)(c4cccc(Cl)c4)C(F)(F)F)CC3)CC2)cc1Cl (stereo not drawn) [Example 2-6, 3-chloro-5-[4-({1-[2-(3-chlorophenyl)-3,3,3-trifluoro-2-hydroxy-propanoyl]piperidin-4-yl}methyl)piperidin-1-yl]-N,N-dimethylpyridine-2-carboxamide]	60	22	26	875	
Cc1ccsc1C(O)(C(=O)N1CCC(CC2CCN(c3ccc(C(=O)N(C)C)c(Cl)c3)CC2)CC1)C(F)(F)F (stereo not drawn) [Example 2-38, 2-chloro-N,N-dimethyl-4-[4-({1-[3,3,3-trifluoro-2-hydroxy-2-(3-methyl-thiophen-2-yl)propanoyl]piperidin-4-yl}methyl)piperidin-1-yl]benzamide]	67	49	15	575	
CN(C)C(=O)c1ccc(N2CCC(OC3CCN(C(=O)C(O)(c4cccc(Cl)c4)C(F)(F)F)CC3)CC2)cc1Cl (stereo not drawn) [Example 2-24, 2-chloro-4-[4-({1-[2-(3-chlorophenyl)-3,3,3-trifluoro-2-hydroxy-propanoyl]piperidin-4-yl}oxy)piperidin-1-yl]-N,N-dimethyl-benzamide]	99	14	37	465	
CCOc1cccc([C@@](O)(C(=O)N2CCC(CC3(C)CCN(c4ccc(C(=O)N(C)C)c(C)n4)CC3)CC2)C(F)(F)F)c1 [Example 7-14, 6-[4-({1-[(2R)-2-(3-ethoxyphenyl)-3,3,3-trifluoro-2-hydroxypropanoyl]piperidin-4-yl}methyl)-4-methyl-piperidin-1-yl]-N,N,2-trimethylpyridine-3-carboxamide]	100	105	0		NO IP
CN(C)C(=O)c1ccc(N2CCC(CC3CCN(C(=O)[C@](O)(c4cccc(Br)c4)C(F)(F)F)CC3)CC2)cc1 [Example 2-143, 4-[4-({1-[(2R)-2-(3-bromo-phenyl)-3,3,3-trifluoro-2-hydroxy-propanoyl]piperidin-4-yl}methyl)piperidin-1-yl]-N,N-dimethyl-benzamide]	69	46	23	413	
COc1cccc([C@@](O)(C(=O)N2CCC(CC3CCN(c4ccc(C(=O)N(C)C)cc4)CC3)CC2)C(F)(F)F)c1 [Example 2-124, N,N-dimethyl-4-[4-({1-[(2R)-3,3,3-trifluoro-2-hydroxy-2-(3-methoxy-phenyl)propanoyl]piperidin-4-yl}methyl)piperidin-1-yl]benzamide]	55	43	4		NO IP
COc1cc(F)cc([C@@](O)(C(=O)N2CCC(CC3CCN(c4ccc(C(=O)N(C)C)cc4)CC3)CC2)C(F)(F)F)c1 [Example 2-137, N,N-dimethyl-4-[4-({1-[(2R)-3,3,3-trifluoro-2-(3-fluoro-5-methoxyphenyl)-2-hydroxy-propanoyl]piperidin-4-yl}methyl)piperidin-1-yl]benzamide]	78	30	15		NO IP
CN(C)C(=O)c1ccc(N2CCC(CC3CCN(C(=O)[C@](O)(c4ccccc4)C(F)(F)F)CC3)CC2)cc1 [Example 2-128, N,N-dimethyl-4-[4-({1-[(2R)-3,3,3-trifluoro-2-hydroxy-2-phenyl-propanoyl]piperidin-4-yl}methyl)piperidin-1-yl]benzamide]	73	58	34	1040	
